The values below are quoted from earlier work in patent US9045248B2 (priority 2007, dated 2015).

By IC50 is commonly meant the point on the concentration scale where inhibition reaches its midpoint.

The series concerns the target influenza virus RNP (Influenza A virus, UniProt P03428). As to conditions: cited from earlier work.

Chain of influenza virus RNP (P03428 whole entry, looked up): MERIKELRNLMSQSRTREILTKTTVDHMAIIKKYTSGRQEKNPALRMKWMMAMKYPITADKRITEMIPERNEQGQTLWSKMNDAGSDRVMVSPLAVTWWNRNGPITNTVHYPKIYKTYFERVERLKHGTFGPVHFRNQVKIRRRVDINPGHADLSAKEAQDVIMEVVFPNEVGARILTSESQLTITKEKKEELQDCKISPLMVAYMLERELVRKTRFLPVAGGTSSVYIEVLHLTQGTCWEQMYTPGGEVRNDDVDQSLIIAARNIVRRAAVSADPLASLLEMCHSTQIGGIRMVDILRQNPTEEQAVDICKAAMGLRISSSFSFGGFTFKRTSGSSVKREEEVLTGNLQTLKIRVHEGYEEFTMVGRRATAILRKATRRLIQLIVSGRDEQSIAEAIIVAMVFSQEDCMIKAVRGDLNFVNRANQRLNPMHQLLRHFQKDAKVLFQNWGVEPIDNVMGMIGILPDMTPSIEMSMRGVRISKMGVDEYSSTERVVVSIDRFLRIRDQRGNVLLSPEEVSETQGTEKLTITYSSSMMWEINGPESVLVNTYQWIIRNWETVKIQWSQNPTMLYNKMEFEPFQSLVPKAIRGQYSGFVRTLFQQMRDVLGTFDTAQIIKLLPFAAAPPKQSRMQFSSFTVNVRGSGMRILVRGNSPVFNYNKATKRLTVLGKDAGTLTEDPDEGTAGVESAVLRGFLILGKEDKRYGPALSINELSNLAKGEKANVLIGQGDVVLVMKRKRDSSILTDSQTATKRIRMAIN

For the molecule `C[n+]1cn([C@@H]2O[C@H](COP(=O)(O)OP(=O)(O)OP(=O)(O)O)[C@@H](O)[C@H]2O)c2nc(N)[nH]c(=O)c21` [m^7GTP, 7-methyl-guanosine triphosphate], the IC50 is 113 µM.
Turning to `Nc1nc2c(ncn2[C@@H]2O[C@H](COP(=O)(O)OP(=O)(O)OP(=O)(O)O)[C@@H](O)[C@H]2O)c(=O)[nH]1` [GTP], the IC50 was 550 µM.
